Laboratory results: patent publication US4659691A, “Novel cyclic Hexapeptide LHRH antagonists” (Merck & Co., Inc., priority 1985, dated 1987)
Where a SMILES comes first, the peptide text is derived from it. [ ]: non-standard residue; d: D form.

Test system: rat pituitary cells
Assay: Isolated rat pituitary cell culture system: antagonism of LH-RH-stimulated LH release
Assay type: cell-based
Experimental: Cyclic hexapeptides of the present invention are evaluated as antagonists of LH-RH in an in vitro pituitary cell culture system. This assay system is described in Vale and Brant, Methods Enzymol, 37, 82 (1975), hereby incorporated by reference for this purpose.
For purposes of illustration, the data for cyclo-[Tyr-D-Trp-Leu-Arg-Trp-Pro] (5) in this assay are presented.
At a dose range of 10^-5 to 10^-9 M, compound 5 was tested in combination with a single dose of LHRH (luteinizing hormone release hormone) on rat pituitary cells in vitro for 60 minutes.

CC(C)C[C@@H]1NC(=O)[C@@H](Cc2c[nH]c3ccccc23)NC(=O)[C@H](Cc2ccc(O)cc2)NC(=O)[C@@H]2CCCN2C(=O)[C@H](Cc2c[nH]c3ccccc23)NC(=O)[C@H](CCCNC(=N)N)NC1=O [Compound 5, cyclo-(Tyr-D-Trp-Leu-Arg-Trp-Pro)] (cyclo(LRWPY[dW]))
reduction of LH release (all lower doses of compound 5 (below 10^-5 M) in the presence of 5×10^-7, 10^-7, 5×10^-8 and 10^-8 M LHRH): essentially ineffective
antagonism to LHRH (compound 5 at 10^-5 M, LHRH at 10^-6, 5×10^-7, 5×10^-8, 10^-8, 5×10^-9, 10^-9 and 5×10^-10 M, 60 minutes): significantly antagonistic
reduction of LH release (compound 5 at 10^-7, 10^-8 and 10^-9 M in the presence of 10^-6 M LHRH, 60 minutes): significantly reduced LH release
effect on LH release (compound alone) (compound 5 at 10^-7 M, no LHRH): does not affect LH release
overall conclusion on LHRH antagonism (greatest antagonistic effect at lower doses of LHRH): antagonistic to LHRH
inhibition of LH release, dose relation (in the presence of 5×10^-9, 10^-9 and 5×10^-10 M LHRH, greatest antagonism at 10^-9 M LHRH): significant dose related inhibition
